Values joined by “and” are separate entries in the source; they are usually repeats but may differ in a detail not shown here. Identical values can stand only once. Toxic doses and inconclusive results are not listed.
System: L1210 leukemia ip in BDF1 mice, survival T/C
Experiment: NCI In Vivo Anticancer Drug Screen. Data for tumor model L1210 Leukemia (intraperitoneal) in B6D2F1 (BDF1) mice
Details: endpoint: mean survival time, higher = longer survival
Outline: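 Tumor was transplanted into mice, which were then dosed with test compound or vehicle alone. Survival was recorded for each group, and the treated figure was expressed relative to the control figure.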

[1] = dose: 100.0 mg/kg/injection, schedule: Q04DX002 (ip), vehicle: Klucel (hydroxypropylcellulose) (HPC)
[2] = dose: 200.0 mg/kg/injection, schedule: Q04DX002 (ip), vehicle: Klucel (hydroxypropylcellulose) (HPC)

SMILES: O=c1[nH]cc(N(CCCl)CCCl)c(=O)[nH]1
- T/C (dose: 0.04 mg/kg/injection, schedule: Q01DX001 (ip), vehicle: carboxymethylcellulose (CMC)): 106 % of control
- T/C (dose: 0.05 mg/kg/injection, schedule: Q01DX Z (ip), vehicle: carboxymethylcellulose (CMC)): 107 % of control
- T/C (dose: 0.05 mg/kg/injection, schedule: Q#A X Z (ip), vehicle: carboxymethylcellulose (CMC)): 101 % of control
- T/C (dose: 0.07 mg/kg/injection, schedule: Q01DX001 (ip), vehicle: carboxymethylcellulose (CMC)): 101 % of control
- T/C (dose: 0.07 mg/kg/injection, schedule: Q03DX006 (ip), vehicle: carboxymethylcellulose (CMC)): 123 % of control
- T/C (dose: 0.09 mg/kg/injection, schedule: Q#A X Z (ip), vehicle: carboxymethylcellulose (CMC)): 106 % of control
- T/C (dose: 0.1 mg/kg/injection, schedule: Q01DX Z (ip), vehicle: carboxymethylcellulose (CMC)): 102 % of control
- T/C (dose: 0.1 mg/kg/injection, schedule: Q01DX Z (ip), vehicle: saline): 157 % of control
- T/C (dose: 0.13 mg/kg/injection, schedule: Q01DX001 (ip), vehicle: carboxymethylcellulose (CMC)): 100 % of control
- T/C (dose: 0.16 mg/kg/injection, schedule: Q07DX003 (ip), vehicle: carboxymethylcellulose (CMC)): 108 % of control
- T/C (dose: 0.19 mg/kg/injection, schedule: Q#A X Z (ip), vehicle: carboxymethylcellulose (CMC)): 110 % of control
- T/C (dose: 0.25 mg/kg/injection, schedule: Q01DX001 (ip), vehicle: carboxymethylcellulose (CMC)): 105 % of control
- T/C (dose: 0.3 mg/kg/injection, schedule: Q01DX Z (ip), vehicle: saline): 159 % of control
- T/C (dose: 0.3 mg/kg/injection, schedule: Q03DX006 (ip), vehicle: carboxymethylcellulose (CMC)): 109 % of control
- T/C (dose: 0.32 mg/kg/injection, schedule: Q07DX003 (ip), vehicle: carboxymethylcellulose (CMC)): 102 % of control
- T/C (dose: 0.37 mg/kg/injection, schedule: Q#A X Z (ip), vehicle: carboxymethylcellulose (CMC)): 119 % of control
- T/C (dose: 0.38 mg/kg/injection, schedule: Q01DX006 (iv), vehicle: carboxymethylcellulose (CMC)): 91 % of control
- T/C (dose: 0.38 mg/kg/injection, schedule: Q01DX Z (im), vehicle: carboxymethylcellulose (CMC)): 98 % of control
- T/C (dose: 0.38 mg/kg/injection, schedule: Q01DX Z (sc), vehicle: carboxymethylcellulose (CMC)): 104 % of control
- T/C (dose: 0.5 mg/kg/injection, schedule: Q01DX001 (ip), vehicle: carboxymethylcellulose (CMC)): 170 % of control
- T/C (dose: 0.6 mg/kg/injection, schedule: Q03DX006 (ip), vehicle: carboxymethylcellulose (CMC)): 170 % of control
- T/C (dose: 0.63 mg/kg/injection, schedule: Q07DX003 (ip), vehicle: carboxymethylcellulose (CMC)): 121 % of control
- T/C (dose: 0.7 mg/kg/injection, schedule: Q01DX Z (ip), vehicle: saline): 101 % of control
- T/C (dose: 0.75 mg/kg/injection, schedule: Q01DX006 (iv), vehicle: carboxymethylcellulose (CMC)): 110 % of control
- T/C (dose: 0.75 mg/kg/injection, schedule: Q01DX015 (ip), vehicle: carboxymethylcellulose (CMC)): 178 % of control
- T/C (dose: 0.75 mg/kg/injection, schedule: Q01DX Z (im), vehicle: carboxymethylcellulose (CMC)): 101 % of control
- T/C (dose: 0.75 mg/kg/injection, schedule: Q01DX Z (ip), vehicle: carboxymethylcellulose (CMC)): 119 % of control
- T/C (dose: 0.75 mg/kg/injection, schedule: Q01DX Z (sc), vehicle: carboxymethylcellulose (CMC)): 107 % of control
- T/C (dose: 0.8 mg/kg/injection, schedule: Q01DX Z (ip), vehicle: other): 109 % of control
- T/C (dose: 1.1 mg/kg/injection, schedule: Q01DX015 (ip), vehicle: carboxymethylcellulose (CMC)): 182 % of control
- T/C (dose: 1.1 mg/kg/injection, schedule: Q03DX006 (ip), vehicle: carboxymethylcellulose (CMC)): 181 % of control
- T/C (dose: 1.2 mg/kg/injection, schedule: Q01DX Z (ip), vehicle: alkali diluted with saline): 118 % of control
- T/C (dose: 1.2 mg/kg/injection, schedule: Q01DX Z (ip), vehicle: saline): 159 % of control
- T/C (dose: 1.25 mg/kg/injection, schedule: Q07DX003 (ip), vehicle: carboxymethylcellulose (CMC)): 114 % of control and 201 % of control
- T/C (dose: 1.3 mg/kg/injection, schedule: Q01DX Z (ip), vehicle: other): 120 % of control
- T/C (dose: 1.5 mg/kg/injection, schedule: Q01DX006 (iv), vehicle: carboxymethylcellulose (CMC)): 104 % of control and 109 % of control
- T/C (dose: 1.5 mg/kg/injection, schedule: Q01DX Z (im), vehicle: carboxymethylcellulose (CMC)): 108 % of control
- T/C (dose: 1.5 mg/kg/injection, schedule: Q01DX Z (ip), vehicle: carboxymethylcellulose (CMC)): 115 % of control
- T/C (dose: 1.5 mg/kg/injection, schedule: Q01DX Z (oral), vehicle: carboxymethylcellulose (CMC)): 119 % of control
- T/C (dose: 1.5 mg/kg/injection, schedule: Q01DX Z (sc), vehicle: carboxymethylcellulose (CMC)): 115 % of control
- T/C (dose: 1.5 mg/kg/injection, schedule: Q#A X Z (ip), vehicle: carboxymethylcellulose (CMC)): 111 % of control
- T/C (dose: 1.6 mg/kg/injection, schedule: Q01DX001 (ip), vehicle: gum acacia): 110 % of control
- T/C (dose: 1.7 mg/kg/injection, schedule: Q01DX015 (ip), vehicle: carboxymethylcellulose (CMC)): 170 % of control
- T/C (dose: 1.8 mg/kg/injection, schedule: Q01DX Z (ip), vehicle: alkali diluted with saline): 112 % of control
- T/C (dose: 1.8 mg/kg/injection, schedule: Q01DX Z (ip), vehicle: other): 109 % of control
- T/C (dose: 2.0 mg/kg/injection, schedule: Q01DX001 (ip), vehicle: carboxymethylcellulose (CMC)): 109 % of control and 123 % of control
- T/C (dose: 2.4 mg/kg/injection, schedule: Q01DX001 (ip), vehicle: gum acacia): 186 % of control
- T/C (dose: 2.5 mg/kg/injection, schedule: Q01DX Z (ip), vehicle: alkali diluted with saline): 116 % of control
- T/C (dose: 2.7 mg/kg/injection, schedule: Q01DX Z (ip), vehicle: other): 124 % of control
- T/C (dose: 3.0 mg/kg/injection, schedule: Q01DX006 (iv), vehicle: carboxymethylcellulose (CMC)): 112 % of control
- T/C (dose: 3.0 mg/kg/injection, schedule: Q01DX Z (ip), vehicle: carboxymethylcellulose (CMC)): 105 % of control and 115 % of control
- T/C (dose: 3.0 mg/kg/injection, schedule: Q01DX Z (ip), vehicle: saline): 112 % of control
- T/C (dose: 3.6 mg/kg/injection, schedule: Q01DX001 (ip), vehicle: carboxymethylcellulose (CMC)): 163 % of control
- T/C (dose: 3.6 mg/kg/injection, schedule: Q01DX001 (ip), vehicle: gum acacia): 150 % of control
- T/C (dose: 3.7 mg/kg/injection, schedule: Q01DX Z (ip), vehicle: saline): 90 % of control
- T/C (dose: 4.5 mg/kg/injection, schedule: Q03DX006 (ip), vehicle: carboxymethylcellulose (CMC)): 111 % of control
- T/C (dose: 5.0 mg/kg/injection, schedule: Q01DX001 (ip), vehicle: carboxymethylcellulose (CMC)): 161 % of control
- T/C (dose: 5.0 mg/kg/injection, schedule: Q07DX003 (ip), vehicle: carboxymethylcellulose (CMC)): 188 % of control
- T/C (dose: 5.4 mg/kg/injection, schedule: Q01DX001 (ip), vehicle: gum acacia): 172 % of control and 330 % of control
- T/C (dose: 6.0 mg/kg/injection, schedule: Q01DX Z (im), vehicle: carboxymethylcellulose (CMC)): 95 % of control
- T/C (dose: 6.0 mg/kg/injection, schedule: Q01DX Z (oral), vehicle: carboxymethylcellulose (CMC)): 104 % of control
- T/C (dose: 6.0 mg/kg/injection, schedule: Q01DX Z (sc), vehicle: carboxymethylcellulose (CMC)): 105 % of control
- T/C (dose: 6.0 mg/kg/injection, schedule: Q#A X Z (ip), vehicle: carboxymethylcellulose (CMC)): 154 % of control
- T/C (dose: 10.0 mg/kg/injection, schedule: Q01DX001 (ip), vehicle: carboxymethylcellulose (CMC)): 105 % of control and 123 % of control
- T/C (dose: 12.0 mg/kg/injection, schedule: Q01DX006 (iv), vehicle: carboxymethylcellulose (CMC)): 115 % of control
- T/C (dose: 20.0 mg/kg/injection, schedule: Q01DX001 (ip), vehicle: carboxymethylcellulose (CMC)): 120 % of control
- T/C (dose: 29.0 micrograms/kg/injection, schedule: Q01DX Z (ip), vehicle: saline): 119 % of control
- T/C (dose: 44.0 micrograms/kg/injection, schedule: Q01DX Z (ip), vehicle: saline): 121 % of control
- T/C (dose: 100.0 micrograms/kg/injection, schedule: Q01DX Z (ip), vehicle: saline): 113 % of control

SMILES: CSc1nccc(=S)[nH]1
- T/C (dose: 50.0 mg/kg/injection, schedule: Q04DX002 (ip), vehicle: Klucel (hydroxypropylcellulose) (HPC)): 88 % of control
- T/C [1]: 92 % of control
- T/C [2]: 95 % of control

SMILES: CC1(C)CC(=O)C2=C(C1)Nc1ccccc1NC2c1ccc([N+](=O)[O-])cc1 (stereo not given)
- T/C [1]: 103 % of control
- T/C [2]: 109 % of control
- T/C (dose: 400.0 mg/kg/injection, schedule: Q04DX002 (ip), vehicle: Klucel (hydroxypropylcellulose) (HPC)): 106 % of control
